Measurements: ChEMBL document CHEMBL2375219, “Discovery of new potential hits of Plasmodium falciparum enoyl-ACP reductase through ligand- and structure-based drug design approaches” (Bioorg Med Chem Lett, 2013)

Assay: Inhibition of Plasmodium falciparum enoyl-ACP reductase expressed in Escherichia coli BL21(DE3) assessed as inhibition of crotonyl-CoA reduction to butyryl-CoA by UV-Vis spectrophotometric analysis

SMILES | pIC50
O=C(O)c1ccc(/C=C2\SC(=S)N(c3ccc(O)cc3)C2=O)cc1 | 5.056
O=C(O)c1ccc(/C=C2\SC(=S)N(c3ccccc3)C2=O)cc1 | 5.041
COc1cccc(N2C(=O)/C(=C/c3ccc(C(=O)O)cc3)SC2=S)c1 | 5.009
COc1cc(/C=C2\SC(=S)N(c3ccc([N+](=O)[O-])cc3)C2=O)cc(Cl)c1O | 5.004
O=C1/C(=C/c2cc(O)c(O)c(Br)c2)SC(=S)N1c1cccc(C(F)(F)F)c1 | 5.004
O=C(O)c1ccccc1/C=C1\SC(=S)N(c2ccc(F)cc2)C1=O | 4.573
COc1ccc(N2C(=O)/C(=C/c3ccc(OC)c(O)c3)SC2=S)cc1 | 5.004
COC(=O)c1ccc(N2C(=O)/C(=C/c3cccc(OC)c3)SC2=S)cc1 | 4.565
COc1cccc(N2C(=O)/C(=C/c3ccc(O)cc3)SC2=S)c1 | 4.91
O=C(O)c1ccc(/C=C2\SC(=S)N(c3ccccc3F)C2=O)cc1 | 4.79
CCOc1cc(/C=C2\SC(=S)N(c3ccccc3C)C2=O)ccc1O | 5.022
CCOc1cc(/C=C2\SC(=S)N(c3ccc(Br)cc3)C2=O)ccc1O | 4.857
COc1ccc(/C=C2\SC(=S)N(c3cccc([N+](=O)[O-])c3)C2=O)cc1Br | 4.627
O=C1/C(=C/c2ccc(O)c([N+](=O)[O-])c2)SC(=S)N1c1cccc2ccccc12 | 4.535
O=C1/C(=C/c2ccc(O)cc2)SC(=S)N1c1ccc([N+](=O)[O-])cc1 | 5.387
CCOc1ccc(N2C(=O)/C(=C/c3ccc(O)cc3)SC2=S)cc1 | 5.081
O=C1/C(=C/c2ccc(O)cc2)SC(=S)N1c1ccccc1 | 5.032
O=C1/C(=C/c2ccc(O)cc2)SC(=S)N1c1ccc(Br)cc1 | 4.955
O=C1/C(=C/c2ccc(O)cc2)SC(=S)N1c1ccc(Cl)cc1 | 4.676
COC(=O)c1ccc(/C=C2\SC(=S)N(c3cccc(O)c3)C2=O)cc1 | 5.081
O=C1/C(=C/c2ccc([N+](=O)[O-])cc2)SC(=S)N1c1cccc(C(F)(F)F)c1 | 4.896
COc1ccc(/C=C2\SC(=S)N(c3cccc(OC)c3)C2=O)cc1 | 4.879
O=C1/C(=C/c2ccc([N+](=O)[O-])cc2)SC(=S)N1c1ccc(F)cc1 | 4.833
COc1ccc(/C=C2\SC(=S)N(c3cccc(C(F)(F)F)c3)C2=O)cc1 | 5.187

Further lines, results first:

pIC50 | SMILES
5.066 | O=C1/C(=C/c2cccc(O)c2)SC(=S)N1c1ccccc1
4.73 | O=C1/C(=C/c2ccc(Cl)c([N+](=O)[O-])c2)SC(=S)N1c1cccc(Cl)c1
4.921 | O=C(O)c1ccccc1/C=C1\SC(=S)N(c2cccc(Cl)c2)C1=O
6.301 | Cc1ccc(N2C(=O)/C(=C/c3ccc(O)c(O)c3)SC2=S)c(C)c1
5.102 | O=C1/C(=C/c2ccc(O)c(O)c2)SC(=S)N1c1ccc(Cl)cc1
5.041 | COc1cccc(N2C(=O)/C(=C/c3cccc(O)c3)SC2=S)c1
6.602 | Cc1ccc(N2C(=O)/C(=C/c3ccc(O)c(O)c3)SC2=S)cc1C
6.097 | O=C1/C(=C/c2ccc(O)c(O)c2)SC(=S)N1c1cccc(Cl)c1
5.009 | Cc1cccc(N2C(=O)/C(=C/c3ccc(O)c(Br)c3)SC2=S)c1
5.066 | O=C1/C(=C/c2ccc(O)cc2)SC(=S)N1c1cccc(F)c1
4.724 | CCOC(=O)c1ccc(/C=C2\SC(=S)N(c3cccc(Cl)c3)C2=O)cc1
5.06 | O=C(O)c1ccc(/C=C2\SC(=S)N(c3cccc(Cl)c3)C2=O)cc1
